Data set [1] in a line: Circular dichroism (CD) of G4 DNA in NaCl. Format: physicochemical. As to conditions: 150 mM NaCl, 25 °C, 320-220 nm. The protocol: (§1) CD measurements were collected on a JASCO J-810 spectropolarimeter (JASCO Inc., Easton, MD, USA) equipped with a PTC-423S peltier system. G4 DNA samples were dialyzed into 20 mM Boric Acid pH 7.5, 150 mM KCl (or NaCl). CD spectra were collected from 320 nm to 220 nm at 25 °C. Five traces were obtained for each DNA substrate, and a reference scan of the buffer alone was subtracted from the averaged CD signal.
On the technique in general: Circular dichroism is widely used to follow secondary structure.

The nature of data set [2]: Circular dichroism (CD) of G4 DNA in KCl. The data set is classed as physicochemical. As to conditions: 20 mM boric acid pH 7.5, 150 mM KCl, 25 °C, 320-220 nm. On the procedure:
as §1

The test system of the next data set is full-length human PCNA. Briefly: BLI, biotinylated FANCJ PIP peptides with PCNA. Format: binding. As to conditions: Buffer H, 25 °C; for Binding to PCNA: BLI. An excerpt:
(§2) The pEB022 plasmid used to produce full-length human PCNA protein was kindly provided by Dr. M. Todd Washington (University of Iowa). A codon-optimized construct (VB170525-1265 nra) used to express human REV1 CTD (amino acid residues 1157 to 1251) in E. coli was synthesized by VectorBuilder Inc. (Chicago, IL, USA). Plasmids were transformed into NiCo21(DE3) competent cells from New England Biolabs (Ipswich, MA, USA). Single bacteria colonies were selected on LB agar plates that were supplemented with 50 µg/mL of kanamycin (PCNA) or carbenicillin (REV1 CTD) to inoculate starter cultures in LB broth. Overnight growths were diluted 1:50 into 4 × 1L LB (37 °C, 250 rpm). Protein expression was induced by adding IPTG to 1 mM when the optical density at 600 nm reached 0.4 absorbance units. Cells were cultured overnight at 16 °C. They were harvested 16 h post induction by centrifugation (6000 × g at 4 °C) for 60 min, and the pellets were resuspended in 20 mM NaPi (pH 7.5), 300 mM NaCl, 30 mM imidazole, 1 mM DTT, 5% (v/v) glycerol, 1% NP-40, and 1 mM PMSF.
(§3) BLI assays were performed on a BLItz instrument (Pall Fortébio, Fremont, CA, USA). Streptavidin-coated biosensors were purchased from Pall Fortébio (Lot 1906281). Biosensors were hydrated in Buffer H for 10 min, and the baseline optical interference was recorded. A total of 150 nM of biotinylated G4 DNA or FANCJ PIP peptide was loaded onto the sensors over 2 min, after which they were washed with Buffer H. Binding reactions were initiated by placing the biosensors in analyte solutions at the indicated concentrations. After their interactions had reached an equilibrium, the sensors were returned to buffer to monitor dissociation of the complexes. Experiments were repeated in triplicate. BLI binding isotherms were generated by plotting the plateau values of the association phase versus total analyte concentration. These curves were fit to a 1:1 interaction model, as described above. The parameters reported were obtained from the average and 95% confidence interval of the three data sets.
PIP-containing proteins bind directly to PCNA to coordinate DNA replication and repair. However, it is now evident that noncanonical PIP-boxes can serve as hotspots to recruit other proteins, including the REV1 translesion synthesis polymerase and the MLH1 mismatch repair protein [54, 55, 56, 64]. To test if the PIP-like motif in FANCJ functions as a PIP or an REV1-interacting region (RIR), we compared how this peptide bound to PCNA versus REV1 by BLI. Recombinant human PCNA protein and the C-terminal domain (CTD) of human REV1 were purified from E. coli (Figure S3A). Biotinylated FANCJ PIP was immobilized on a streptavidin-coated biosensor and experiments were performed as described above. […]

The test system of data set [3] is human REV1 CTD (amino acid residues 1157 to 1251). The experiment in a line: BLI, biotinylated FANCJ PIP peptides with REV1 CTD. The data set is classed as binding. The following applies: Buffer H, 25 °C; for BLI binding signal (Δλ), REV1 CTD versus PCNA: 1.3 µM PCNA trimer.
Excerpt: as §2, §3
PIP-containing proteins bind directly to PCNA to coordinate DNA replication and repair. However, it is now evident that noncanonical PIP-boxes can serve as hotspots to recruit other proteins, including the REV1 translesion synthesis polymerase and the MLH1 mismatch repair protein [54, 55, 56, 64]. To test if the PIP-like motif in FANCJ functions as a PIP or an REV1-interacting region (RIR), we compared how this peptide bound to PCNA versus REV1 by BLI. Recombinant human PCNA protein and the C-terminal domain (CTD) of human REV1 were purified from E. coli (Figure S3A). Biotinylated FANCJ PIP was immobilized on a streptavidin-coated biosensor and experiments were performed as described above. […] Because Δλ is related to the thickness of the biolayer, this value reports the accumulation of mass on the sensor tip. […] This difference is further magnified as REV1 CTD has a molecular mass of ~12 kDa, while a human PCNA trimer is about seven times its size, at ~86 kDa. Next, we tested the effects of a FANCJ PIP AA peptide on its interactions with REV1 CTD and PCNA. The consecutive consensus aromatic residues (YF) within the potential PIP-motif were replaced with alanine amino acids (AA). […] BLI experiments with PIP and PIP AA were repeated as a function of REV1 CTD and PCNA concentration to measure their corresponding equilibrium constant values.

The target in the next data set is bioFANCJ PIP AA (human). Briefly: BLI; 150 nM biotinylated FANCJ PIP or PIP AA peptide loaded on streptavidin biosensors (BLItz); REV1 CTD (1.8 uM) or PCNA trimer (1.3 uM) as analyte, also as a function of analyte concentration; Buffer H (20 mM HEPES pH 7.5, 150 mM KCl, 5 mM TCEP, 5% glycerol), 25 C; plateau values fit to a 1:1 model. A general note: In BLI a coated tip is dipped into the sample, and binding shifts an interference pattern.

Data set [4] has as its target T1, human REV1 CTD (amino acid residues 1157 to 1251) (human, UniProt Q9UBZ9 1157-1251).
T1 construct: REV1 translesion DNA synthesis polymerase, human, C-terminal domain, residues 1157-1251; codon-optimized construct; also called C-terminal domain (CTD) of human REV1; source: E. coli NiCo21(DE3), purified (Ni2+ IMAC, heparin)
T1 sequence (looked up): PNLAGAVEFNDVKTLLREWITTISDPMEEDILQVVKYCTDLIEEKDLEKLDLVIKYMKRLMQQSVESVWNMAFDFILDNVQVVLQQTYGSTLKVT
The description is as above. As to conditions: both partners purified.

Data set [5] concerns the target T2, full-length human PCNA protein (human, UniProt P12004 1-261).
T2 construct: PCNA sliding clamp, human, full length; made from plasmid pEB022; also called PCNA trimer; source: E. coli NiCo21(DE3), purified (Ni2+ IMAC, heparin)
The description is as above. As to conditions: both partners purified.

Where [6] appears, read: BLI isotherms, PIP AA versus wild-type PIP.
Setting [7] is: biotinylated peptide 150 nM, 1.8 µM REV1 CTD.

Entries after “also recorded” stand apart in the source; their conditions may differ. Where no end group is shown, it is not given here. The star is where a group is joined. Biotin = O=C1N[C@H]2[C@H](CS[C@H]2CCCCC(=O)*)N1

T2 sequence (P12004 whole entry): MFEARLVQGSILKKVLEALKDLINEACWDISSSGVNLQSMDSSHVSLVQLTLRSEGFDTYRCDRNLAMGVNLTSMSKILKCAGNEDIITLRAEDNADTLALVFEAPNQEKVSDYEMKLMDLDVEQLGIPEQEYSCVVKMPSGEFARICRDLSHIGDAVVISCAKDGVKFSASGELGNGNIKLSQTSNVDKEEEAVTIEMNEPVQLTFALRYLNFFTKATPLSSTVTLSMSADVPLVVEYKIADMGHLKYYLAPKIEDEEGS

Take “(TTAGGG)4: human telomeric G4 DNA, TTAGGGTTAGGGTTAGGGTTAGGG”: the “G4 conformation by CD (NaCl)” value in data set [1] is “adopted an anti-parallel configuration in NaCl buffer”. Moreover, the “G4 conformation by CD (KCl)” value in data set [2] was “folded into a hybrid conformation”.

Take “Biotin-SWSSFNSLGQAATGKIP [FANCJ PIP AA, Biotin-…, YF replaced with AA]”: in the data set with full-length human PCNA (setting [6]), the “Change in affinity (binding constant) for PCNA by PIP AA mutation” value was “binding of PCNA was weakened twofold; also recorded: reduced the binding constant for PCNA by half”. Moreover, the “Binding to PCNA” value in the data set on full-length human PCNA was “still retained residual interactions with PCNA”. The “BLI binding signal, PIP AA versus wild-type PIP, PCNA” value with full-length human PCNA (biotinylated peptide 150 nM, 1.3 µM PCNA trimer) is listed as “larger binding signals compared to the wild-type PIP sequence”. Besides, the “Change in affinity for REV1 CTD by PIP AA mutation” value in data set [3] (setting [6]) was “small increase in affinity for REV1 CTD”. Also, in data set [3] (setting [7]), the “BLI binding signal (Δλ), REV1 CTD versus PCNA” value was “more REV1 CTD bound to the mutant peptide versus PCNA” and the “BLI binding signal, PIP AA versus wild-type PIP, REV1 CTD” value is “larger binding signals compared to the wild-type PIP sequence for REV1 CTD”.

For the molecule “Biotin-SWSSFNSLGQYFTGKIP [FANCJ PIP, Biotin-…, FANCJ amino acids 1001–1017]”, in the data set with full-length human PCNA, the “Binding to PCNA” value is “bound to REV1 CTD and to PCNA”. In addition, the “Binding to REV1 CTD” value in data set [3] (BLI) is on record as “bound to REV1 CTD”. The “BLI binding signal (Δλ), REV1 CTD versus PCNA” value in data set [3] (setting [7]) is “REV1 CTD produced a larger binding signal than PCNA at similar molar concentrations of protein; also recorded: Interactions with REV1 CTD, however, produced a stronger binding signal than PCNA”.

Molecule “full-length human PCNA protein (from UniProt P12004 1-261)” registered a fold weakening of the equilibrium constant against wild-type FANCJ PIP with bioFANCJ PIP AA (human) of 2 fold.

B1: bioFANCJ PIP (peptide)
peptide: Biotin-SWSSFNSLGQYFTGKIP
notes: FANCJ helicase, human, PIP-like motif, amino acids 1001-1017; Held on streptavidin biosensors by the N-terminal biotin; also called biotinylated FANCJ PIP; wild-type PIP; source: synthetic peptide (Genscript)
For the molecule B1, the binding result in data set [4] and in data set [5] was “binds” each time.
